From patent US4118506A, “Pharmaceutical compositions containing 1,3-dithiol-2-ylidene malonate derivatives” (Nihon Nohyaku Co., Ltd., priority 1976, dated 1978)

Tests used:
[1] = tested on: acute liver damage induced by carbon tetrachloride; assay: protective effect on acute liver damage associated with centrilobular necrosis, carbon tetrachloride model; type: in vivo, mouse (dd strain); settings: 250 mg/kg oral 6 h before CCl4, 24 h after CCl4; for Liver Damage Index: 0 normal, 2 slightly recognized, 4 clearly observable, 6 heavy damage, average of 5 to 6 mice; for p-GPT: values over 1,000 taken as 1,000
Excerpt: Carbon tetrachloride (CCl4) administration induces centrilobular necrosis of the liver associated with loss of diphosphopyridine nucleotide, hepatic glycogen, coenzyme A and increase in neutral fat. Release of several enzymes from the hepatocytes, and increase of enzyme activities in the plasma are recognized as the result of the damage of the liver. A suitable means for evaluating the degree of damage induced by CCl4 or the degree of protection afforded by drugs is to study the plasma glutamic-pyruvic transaminase (p-GPT) activity.
Methods: The test compounds were dissolved or suspended in olive oil and administered orally at the dose of 250 mg/kg to the mice (Four-week-old male mice-dd strain). After 6 hours, CCl4 was administered orally (0.05 ml/kg as olive oil solution). Animals were killed 24 hours after CCl4 administration, and the liver was grossly observed. The plasma was obtained by centrifugation. Activities of p-GPT were determined by the method of Reitman and Frankel and expressed in Karmen units.
Score for liver damage index was as follows:
Each figure indicates average of 5 to 6 mice. Values of p-GPT over 1,000 Karmen unit regarded as 1,000 for calculation of average for convenience.

[2] = tested on: alcohol metabolic function of liver; assay: effect on concentration of ethyl alcohol in the blood; type: in vivo, mouse; settings: 250 mg/kg oral 6 h before ethanol 1,000 mg/kg
Protocol: The test compounds are dissolved or suspended in olive oil and administered orally at the dose of 250 mg/kg to the mice. After 6 hours, 1,000 mg/kg of ethyl alcohol was given orally. Blood was taken in a capillary from caudal vein at the time indicated in the results. The plasma was obtained by centrifugation. The concentration of ethyl alcohol in the plasma was measured by FID type gas liquid chromatography. Five mice were used for each group.

[3] = tested on: fatty liver induced by ethionine; assay: effect on fatty liver, ethionine model; type: in vivo, mouse (dd-strain); settings: 250 mg/kg oral, simultaneously with (0 hr) ethionine 200 mg/kg i.p.
Excerpt: There are known many factors inducing fatty liver. But, the fatty liver is grouped into a couple of patterns from the mechanism of lipid accumulation or metabolism of lipoprotein in the liver. Ethionine is a typical example which induces first pattern of fatty liver. It inhibits RNA and protein synthesis and destroys polysome of the liver cell. Fatty liver is induced by inhibition of the protein synthesis and disturbance of lipoprotein secretion.
Usually, fatty liver is closely related to the accumulation of triglyceride in the liver. In the present example, the degree of fatty liver and protective or therapeutic effect on the fatty liver was evaluated by measurement of triglyceride content in the liver.
The compounds of this invention and methionine were independently dissolved or suspended into olive oil and administered orally to the male mouse (4 week-old dd-strain) at the dose of 250 mg/kg. One hour before it, simultaneously with it or one hour after it, ethionine dissolved in equimolar NaOH solution was administered intraperitoneally at the dose of 200 mg/kg. Twenty four hours after the administration of ethionine, the animals were sacrificed and triglyceride content in the liver was determined by chromotropic acid method.

[4] = tested on: fatty liver induced by carbon tetrachloride; assay: therapeutic effect on fatty liver, carbon tetrachloride model; type: in vivo, rat (SD strain)
Protocol: Carbon tetrachloride also induces fatty liver, but the picture of disease differs from the case of ethionine-induced fatty liver. Carbon tetrachloride is generally considered to damage microsome and thereby to inhibit protein synthesis and induce fatty liver.
Carbon tetrachloride was subcutaneously administered to 36 week-old male rats (SD strain) for 4 days at the dose of 1 ml/kg. The treated animals were left for 3 days after the last administration to maximize the manifestation of fatty liver.
Administration of Compound 4 was commenced on the fourth day after the administration of carbon tetrachloride was completed. It was orally given everyday for 10 days at the dose of 50 or 250 mg/kg. On the 11th day, the animals were sacrificed by exsanguination. The therapeutic effect was evaluated by determining the content of lipid in the liver (triglyceride and total lipid) and examining the histopathological changes. Triglyceride and total lipid were determined colorimetrically by chromotropic acid method and Bragdon's oxidation method, respectively.
Indices for the histopathological change is as follows: […]

[5] = tested on: glucose metabolic function of liver; assay: effect on glucose metabolism (blood sugar); type: in vivo, mouse; settings: for Blood Sugar: 250 mg/kg oral 6 h before glucose 4.0 g/kg
Protocol: Methods: The test compounds dissolved in olive oil and administered orally at the dose of 250 mg/kg to the mice. After 6 hours, 4.0 g/kg of glucose was orally administered. The same amount of glucose was given to the control animals. 0.02 ml of blood was taken from caudal vein of the mice at 30, 60, 90 and 120 min. after glucose administration. Blood sugar was measured by the procedure of Somogyi-Nelson. Number of animals used was 5 to 6 mice for each treatment.

[6] = tested on: acute liver damage induced by bromobenzene; assay: protective effect on acute liver damage associated with centrilobular necrosis, bromobenzene model; type: in vivo, rat (SD); settings: bromobenzene 0.75 ml/kg oral; 100 mg/kg oral 6 h before; 24 h after
Protocol: (§1) Bromobenzene (hereinafter abbreviated as BB), Dimethylnitrosamine (hereinafter abbreviated as DMN) and chloroform (hereinafter abbreviated as CF) resemble carbon tetrachloride in inducing liver damage associated with centrilobular necrosis.
(§2) Test compound or anethol trithion was orally administered to animal at the dose of 100 mg/kg. Twenty four hours after it (in the case of dimethylnitrosamine, exceptionally fifteen hours after it) the animals were sacrificed and blood samples were collected. Indices of hepatotoxicity adoptable in each chemical were measured, from which the efficacy of the compound was evaluated.
BB male rat 0.75 oral p-GPT activity

[7] = tested on: acute liver damage induced by dimethylnitrosamine; assay: protective effect on acute liver damage associated with centrilobular necrosis, dimethylnitrosamine model; type: in vivo, mouse (dd); settings: dimethylnitrosamine 0.05 ml/kg i.p.; 100 mg/kg oral 6 h before; 15 h after
Protocol: as §1, §2
DMN male mouse 0.05 intraper-

[8] = tested on: acute liver damage induced by chloroform; assay: protective effect on acute liver damage associated with centrilobular necrosis, chloroform model; type: in vivo, mouse (dd); settings: chloroform 0.2 ml/kg oral; 100 mg/kg oral 6 h before; 24 h after
Protocol: as §1, §2
CF male mouse 0.2 oral p-GPT activity

[9] = tested on: acute liver damage induced by allyl alcohol; assay: protective effect on acute liver damage associated with periportal necrosis, allyl alcohol model; type: in vivo, mouse (dd strain); settings: 250 mg/kg oral 6 h before allyl alcohol 0.075 ml/kg oral; 24 h after
Protocol: The compound of this invention or anethol trithion was orally administered to the male mouse (4 week/old, dd strain) at the dose of 250 mg/kg. Six hours after it, allyl alcohol was orally administered at the dose of 0.075 ml/kg. Twenty four hours after it, the animals were sacrificed to collect blood samples.

[10] = tested on: acute liver damage induced by D-galactosamine; assay: protective effect on acute hepatitis with mesenchymal reaction and discrete lobular necrosis, D-galactosamine model; type: in vivo, rat (SD strain); settings: 250 mg/kg oral 6 h before D-galactosamine i.p.
Protocol: D-Galactosamine is a compound which induces a discrete lobular necrosis associated with mesenchymal reaction similar to the change observed in human viral hepatitis, so that it is frequently used in producing a model for viral hepatitis.
The compound of this invention or anethol trithion was administered orally to the male rat (SD strain) at the dose of 250 mg/kg. Six hours after it, D-galactosamine was intraperitoneally administered at the dose of 600 mg/kg. Four hours after it, an additional 300 mg/kg was administered intraperitoneally. Eight hours after it, the animals were sacrificed to collect the blood samples. P-GPT activity and triglyceride in the liver were measured to evaluate the effect of the compound of this invention.

[11] = tested on: bile flow and excretion of biliary salt; assay: cholagogic action: bile flow and biliary salt excretion; type: in vivo, rat (SD-JCL strain); parameters: key to excretion of biliary salt: relative to 1 h pre-drug amount taken as 100
Protocol: The male rat (4 week-old, SD-JCL strain) was anesthetized with sodium pentobarbital (37.5 mg/kg, intraperitoneal injection). The abdominal cavity was opened through a midline incision. The common bile duct was catheterized with polyethylene tube o.d. 0.8 mm. The catheter was brought to the outside through the abdominal incision wound prior to closing. Bile was collected from the catheter continuously with time intervals of one hour. The quantity of bile produced in one hour was determined by weighing and that of biliary salt was determined by enzymatic method (Ikagaku Jikkenho Koza 1B, Biological Constituents II, edited by Tamino […]). The amount of biliary salts was represented as chloic acid equivalent. In the representation of the results, the quantities of bile and biliary salts produced in one hour prior to the administration of drug were taken as 100. […] As reference, anethol trithion was used.

CC(C)COC(=O)C(C(=O)OCC(C)C)=C1SC=CS1 [Compound 6]
Liver Damage Index [1]: 0.4 | p-GPT [1]: 75 Karmen units

CCOC(=O)C(C(=O)OC(C)C)=C1SC=CS1 [Compound 7, Ethyl isopropyl 1,3-dithiol-2-ylidene malonate]
Liver Damage Index [1]: 0.8 | p-GPT [1]: 102 Karmen units | Concentration of Ethyl alcohol in Plasma ([2]; 0 min): 30 ± 14 ppm | Concentration of Ethyl alcohol in Plasma ([2]; 5 min): 830 ± 180 ppm | Concentration of Ethyl alcohol in Plasma ([2]; 15 min): 799 ± 154 ppm | Concentration of Ethyl alcohol in Plasma ([2]; 30 min): 448 ± 208 ppm | Concentration of Ethyl alcohol in Plasma ([2]; 60 min): 158 ± 113 ppm | Concentration of Ethyl alcohol in Plasma ([2]; 120 min): 12 ± 2 ppm

CCCCOC(=O)C(C(=O)OCCCC)=C1SC=CS1 [Compound 5]
Liver Damage Index [1]: 0.4 | p-GPT [1]: 52 Karmen units

CSCC[C@H](N)C(=O)O [Methionine, reference compound]
Triglyceride [3]: 10.3 ± 0.83 mg/g-liver | Total lipid ([4]; 250 mg/kg, 10 days): 146.1 ± 13.0 mg/g-liver | Triglyceride ([4]; 250 mg/kg, 10 days): 47.3 ± 7.3 mg/g-liver | therapeutic effect against fatty liver ([4]; carbon tetrachloride): hardly exhibited a therapeutic effect

COC(=O)C(C(=O)OC)=C1SC=CS1 [Compound 1]
Liver Damage Index [1]: 0.4 | p-GPT [1]: 138 Karmen units

CCOC(=O)C(C(=O)OCC)=C1SC=CS1 [Compound 2, Diethyl 1,3-dithiol-2-ylidene malonate]
Liver Damage Index [1]: 0.2 | p-GPT [1]: 36 Karmen units | Blood Sugar, percent of 0 min value ([5]; 0 min): 100% | Blood Sugar ([5]; 0 min): 136 ± 20.4 mg/dL | Blood Sugar ([5]; 30 min): 295 ± 22.3 mg/dL | Blood Sugar ([5]; 60 min): 251 ± 19.6 mg/dL | Blood Sugar ([5]; 90 min): 202 ± 12.3 mg/dL | Blood Sugar ([5]; 120 min): 158 ± 15.5 mg/dL | Blood Sugar, percent of 0 min value ([5]; 30 min): 217% | Blood Sugar, percent of 0 min value ([5]; 60 min): 185% | Blood Sugar, percent of 0 min value ([5]; 90 min): 149% | Blood Sugar, percent of 0 min value ([5]; 120 min): 116%

COC(=O)C(C(=O)OCC(C)C)=C1SC=CS1 [Compound 8, Methyl isobutyl 1,3-dithiol-2-ylidene malonate]
Liver Damage Index [1]: 0.6 | p-GPT [1]: 88 Karmen units

COc1ccc(-c2cc(=S)ss2)cc1 [Anethol trithion, reference compound]
p-GPT [1]: 38 Karmen units | BSP [6]: 12.9 ± 5.5 mg/dL | p-GPT [6]: 28 ± 4.1 Karmen unit | BSP [7]: 17.6 ± 2.7 mg/dL | p-GPT [7]: 192 ± 54 Karmen unit | p-GPT [8]: > 1000 Karmen unit | BSP [9]: 19.3 ± 4.6 | Triglyceride in the liver [10]: 9.2 ± 1.5 mg/g | excretion of biliary salt ([11]; 200 mg/kg oral, 5 hours after treatment, before treatment = 100): 33 ± 4.0 | excretion of biliary salt ([11]; before treatment, 1 hour, taken as 100 (normalisation)): 100

CCCOC(=O)C(C(=O)OCCC)=C1SC=CS1 [Compound 3, Di-n-propyl 1,3-dithiol-2-ylidene malonate]
Liver Damage Index [1]: 0.1 | p-GPT [1]: 36 Karmen units
